Measurements published in US7528224B1, “Peptide for triggering an immune reaction against tumor cells” (Immatics Biotechnologies GmbH, priority 1999, dated 2009).
Ends that are not written are not given here.

How the values were obtained:
[1] = tested on: cytotoxic T cells; test: Induction of cytotoxic T cells in vitro with peptide-pulsed dendritic cells; format: cell-based, human; conditions: dendritic cells incubated with 50 μg/ml synthetic peptide, autologous mononuclear cells
Protocol: As e.g. described by Brossart, P., et al., Cancer Res 58 (1998), pages 732 ff.; first of all, mononuclear cells of peripheral blood were isolated from buffy coat preparations of heparinized blood of three healthy donators by Ficoll/Paque (Gibco-BRL, Grand Island, N.Y.) density-gradient centrifugation. The cells were seeded in cell culture bowls in RP10 medium.
5×10^5 dendritic cells from 1.1 were incubated with 50 μg/ml synthetic peptide from 1.2 for two hours, washed, and incubated with 2.5×10^6 autologous, i.e. coming from the same donators, mononuclear cells of periphery blood in RP10 medium. Additionally to the control peptides and the potentially HLA-A2 binding peptides the dendritic cells were partly incubated with 50 μg/ml of a PAN-HLA-DR-binding peptide which represents a T helper epitope.
After seven days of cultivation, the cells were again stimulated by adding autologous, mononuclear cells of peripheral blood pre-incubated with the synthetic peptide from 1.2. On the first, third and fifth day, respectively, 1 ng/ml human recombinant IL-2 (Genzyme) was added. The cytokine IL-2 is necessary for the cultivation and reproduction of cytotoxic T cells. Altogether, stimulation was effected up to three times in an interval of a week.

[2] = tested on: T2 cells; test: 51Cr release cytotoxic T cell activity on peptide-pre-incubated T2 cells; format: cell-based, human; conditions: 4 h; for killing of T2 cells pre-treated with the same peptide by the cytotoxic T cells induced with the peptide: T2 cells pre-incubated with 50 μg/ml of exactly this peptide; for killing of T2 cells pre-treated with other peptides by the cytotoxic T cells induced with the peptide: T2 cells pre-incubated with other peptides
Protocol: T2 cells which are distinguished by the fact that they can generate HLA-A2, but cannot present peptides synthesized by themselves via this MHC class I molecules, were pre-incubated with 50 μg/ml of synthetic peptide from 1.2 for two hours and marked with [^51Cr]-sodium chromate in RP10 at 37° C. for one hour. In each case 10^4 of these cells were transferred into each of a well of a 96-well-plate. Cytotoxic T cells that were generated before according to 1.3 were added, so that, respectively, an end volume of 200 μl per well was reached. Subsequently, incubation took place for four hours at 37° C. If now the cytotoxic T cells kill the cells that were labeled with ^51Cr before, they lyse these cells, and the ^51Cr contained in the cells is released. At the end of the experiment in the cell supernatants taken off, the released radioactivity is determined by counting in a β-counter. In that way, a measure for the cytotoxic activity of T cells is obtained.

| Sequence | induction of cytotoxic T cells in vitro by means of dendritic cells [1] | killing of T2 cells pre-treated with the same peptide by the cytotoxic T cells induced with the peptide [2] | killing of T2 cells pre-treated with other peptides by the cytotoxic T cells induced with the peptide [2] |
| --- | --- | --- | --- |
| LLLLTVLTV [SEQ ID NO: 2] | able to induce cytotoxic T cells | could kill only those cells which were pre-treated with the peptide with the sequence SEQ ID NO: 2 | behave in the same way |
| STAPPVHNV [SEQ ID NO: 1] | able to induce cytotoxic T cells | able to specifically kill | not able to kill |
